From US10059950B2, “Compositions comprising an internalizing nucleic acid molecule, and their methods of use” (B3 BIO, INC., priority 2012, dated 2018)
In the oligonucleotide strings, read from the 5' end, every base follows the letter of its sugar. An asterisk marks phosphorothioate; unmarked linkages are phosphodiester. Other units and linkages are bracketed, terminal groups are in braces. A string of capitals states the bases alone. r = 2'-OH (RNA); f = 2'-fluoro

B1: GGGAGGACGAUGCGGUACUUUCGGGCUUUCGGCAACAUCAGCCCCUCAGGACGCAAUUUCUC (nucleic acid)
chain: rGrGrGrArGrGrAfCrGrAfUrGfCrGrGfUrAfCfUfUfUfCrGrGrGfCfUfUfUfCrGrGfCrArAfCrAfUfCrArGfCfCfCfCfUfCrArGrGrAfCrGfCrArAfUfUfUfCfUfC
modifications: Alexa 647 label attached, position not given here, further chemistry not fully specified
notes: truncation of iNA E3, 62 bases

Test system: human prostate cancer cell line PC-3
Test: Flow cytometric-based screening assay for internalization in PC-3 cells
Type: cell-based
Details: for ability to bind and internalize as compared to wildtype iNA (E3-45): PC-3, in words
Protocol: In illustrating a screening process for internalization, from clones selected for further analysis from the selection process, a flow cytometric-based assay for binding and/or internalization was utilized. Typically, the assay was performed by incubating 200 nM of each clone with 5×10^5 target cells in 100 ul PBS containing 0.5% bovine serum albumin (BSA) in a 13 mm tube for 2 hours @ 37° C. A first portion of the cells was then treated with RNAse to remove any of the clone remaining bound to the surface of the cells, so as to allow detection and quantitation of internalized clone (i.e., measuring internalization). In parallel, a second portion of the cells was treated with PBS containing 0.5% BSA (lacking added RNase activity to enzymatically cleave […]), so as to allow detection and quantitation of clone remaining bound to the cell surface, as well as internalized clone (i.e., measuring binding and internalization). Following further washes with phosphate-buffered saline, the cells were fixed in 1% formaldehyde and then subjected to analysis on a flow cytometer using commercially available analysis software. In performing analyses by flow cytometry, several assay controls were used. As an assay control representing either no or background (e.g., non-specific) internalization, an RNA molecule resulting from a selection process for binding a molecule not detectably expressed on target cells was used. The assay control RNA molecule was further modified with Alexa 647, and then used for further characterization of clones from the selection process described herein. For ease of description and reference for this Example, this assay control RNA molecule is referred to herein as Negative Control 1 (see, e.g., Table 5). As an additional assay control that represents either no or background internalization, used was an RNA molecule from the starting library which was chosen from the library prior to beginning a selection method described herein, and that was further modified with Alexa 647. This assay control RNA molecule is referred to herein as Negative Control 2 (see, e.g., Tables 5, 7, and 8). Additionally, fluorescence of unstained cells was measured, as a control, to quantitate any background fluorescent properties of the cells themselves as encountered in analyses by flow cytometry (“Unstained”), as opposed to fluorescent signal mediated by the RNA molecules further modified to include Alexa 647. Shown in Table 5 are the results of analyses by flow cytometry in which measured and quantitated was the ability of clones, selected on the basis of sequence convergence, to internalize into target cells represented by human prostate cancer cell line PC-3. The units of fluorescence in Table 5 represent mean fluorescence (“Mean”). The fold increase (determined by dividing the mean fluorescence of a clone by the mean fluorescence of unstained cells) is an indicator of the ability of a clone, or a clone which has been further modified to include an effector moiety, to internalize into the target cells (Table 5; “Fold Increase”).
The truncations, illustrated in Table 6, were each further modified with a detectable moiety, Alexa 647, and analyzed by a flow cytometric-based screening assay for internalization using the methods outlined in Example 2, to determine minimal sequences that maintain the full ability to internalize into human prostate cancer cells. Shown in Table 7 are the results of analyses by flow cytometry in which measured and quantitated was the ability of each truncation to internalize into target cells represented by human prostate cancer cell line PC-3. The units of fluorescence in Table 7 represent mean fluorescence intensity (“Mean”). […]

[1] = Table 7, truncations modified with Alexa 647, PC-3
[2] = Table 8, mutants of E3-45, PC-3

Row | Molecule | Fold increase (mean fluorescence intensity / unstained cells) [1] | Mean (mean fluorescence intensity) [1] | Fold increase (mean fluorescence intensity / unstained cells) [2] | Mean (mean fluorescence intensity) [2] | ability to bind and internalize as compared to wildtype iNA (E3-45)
1 | GGGAGGCUGGGCUUUCGGCAAC (rGrGrGrArGrGfCfUrGrGrGfCfUfUfUfCrGrGfCrArAfC; aptamer; Alexa 647 label attached, position not given here, further chemistry not fully specified) [E3-22, truncation of iNA E3, 22 bases] | 1.0 | 80.7 | – | – | –
2 | GGGAGGCUUUCGGGCUUUCGGCAACAUCAGCC (rGrGrGrArGrGfCfUfUfUfCrGrGrGfCfUfUfUfCrGrGfCrArAfCrAfUfCrArGfCfC; aptamer; Alexa 647 label attached, position not given here, further chemistry not fully specified) [E3-32, truncation of iNA E3, 32 bases] | 11.8 | 944 | – | – | –
3 | GGGUGCGGUACUUUCGGGCUUUCGGCAACAUCAGCCCCUCAGGACG (rGrGrGfUrGfCrGrGfUrAfCfUfUfUfCrGrGrGfCfUfUfUfCrGrGfCrArAfCrAfUfCrArGfCfCfCfCfUfCrArGrGrAfCrG; aptamer; Alexa 647 label attached, position not given here, further chemistry not fully specified) [E3-45, truncation of iNA E3, 45 bases; wildtype for mutants 1-8] | 8.6 | 690 | 5.4 | 470 | –
4 | mutant 1: assay control mutant of E3-45, mutation in a loop not containing the conserved motif UUUCGG (GGGUGCGAAACUUUCGGGCUUUCGGCAACAUCAGCCCCUCAGACCG; listed as RNA, chemistry not fully specified) | – | – | 4.7 | 405 | ability to internalize equally
5 | mutant 2: mutant of E3-45 with the conserved motif UUUCGG mutated in a loop portion (GGGUGCGGUACUAAAGGGCUUUCGGCAACAUCAGCCCAAAAGGACG; aptamer; listed as RNA, chemistry not fully specified) | – | – | 1.5 | 127 | loss of the ability to bind and internalize
6 | mutant 3: mutant of E3-45 with the conserved motif UUUCGG mutated in a loop portion (GGGUGCGGUACUUUCGGGCUAAAGGCAACAUCAGCCCCUCAGGACG; aptamer; listed as RNA, chemistry not fully specified) | – | – | 1.6 | 142 | loss of the ability to bind and internalize
7 | mutant 4: mutant of E3-45 with the conserved motif UUUCGG mutated in a loop portion (GGGUGCGGUACUUUCGGGCUUUCAAAAACAUCAGCCCCUCAGGACG; aptamer; listed as RNA, chemistry not fully specified) | – | – | 2.0 | 176 | loss of the ability to bind and internalize
8 | mutant 5: site-directed mutant of E3-45 in a loop portion containing a conserved motif (GGGUGCGGUACUUUCGGGCUUUCGGCUUUAUCAGCCCCUCAGGACG; listed as RNA, further chemistry not given here) | – | – | 1.9 | 164 | –
9 | mutant 6: site-directed mutant of E3-45 in a loop portion containing a conserved motif (GGGUGCGGUACUUUCGGGCUUUCGGCCCCAUCAGCCCCUCAGGACG; listed as RNA, further chemistry not given here) | – | – | 1.9 | 167 | –
10 | mutant 7: site-directed mutant of E3-45 in a loop portion containing a conserved motif (GGGUGCGGUACUUUCGGGCUUUCGGCAACUAUAGCCCCUCAGGACG; listed as RNA, further chemistry not given here) | – | – | 1.8 | 153 | –
11 | mutant 8: mutant of E3-45 with loop portion mutated to 5′ to 3′ UUUCGAG (GGGUGCGGUACUUUCGGGCUGGCACUUUCGAAAGCCCCUCAGGACG; listed as RNA, chemistry not fully specified) | – | – | 1.5 | 130 | loss of binding and internalization
12 | B1 | 10.7 | 858 | – | – | –
